Data published in US20260116921A1, “PEPTIDE INHIBITORS OF INTERLEUKIN-23 RECEPTOR AND THEIR USE TO TREAT INFLAMMATORY DISEASES” (priority 2018, published 2026).
Numbered stars: 1 amine (or outer) side, 2 acyl side, 3 side chain; on linkers, the order of the positions; unused ones are H or OH. Bridge positions count the residues as written; N and C are the ends. Square brackets hold non-standard residues; d marks the D form. Peptide text beside a SMILES is read from it. X2 = CCCc1cccc2c(C[C@H](N[*:1])C(=O)[*:2])c[nH]c12; X1 = CCc1cccc2c(C[C@H](N[*:1])C(=O)[*:2])c[nH]c12; Trp(7-Me) = Cc1cccc2c(C[C@H](N)C(=O)O)c[nH]c12; Trp(1-Me) = Cn1cc(C[C@H](N)C(=O)O)c2ccccc21; 2Nal = N[C@@H](Cc1ccc2ccccc2c1)C(=O)O; AEF = NCCOc1ccc(C[C@H](N)C(=O)O)cc1; Cit = NC(=O)NCCC[C@H](N)C(=O)O; Pen = CC(C)(S)[C@H](N)C(=O)O; αMeK = C[C@](N)(CCCCN)C(=O)O; NMeA = CN[C@@H](C)C(=O)O; βAla = NCCC(=O)O

T1: IL-23R (Homo sapiens, UniProt Q5VWK5)
T1 sequence (Q5VWK5 24-629): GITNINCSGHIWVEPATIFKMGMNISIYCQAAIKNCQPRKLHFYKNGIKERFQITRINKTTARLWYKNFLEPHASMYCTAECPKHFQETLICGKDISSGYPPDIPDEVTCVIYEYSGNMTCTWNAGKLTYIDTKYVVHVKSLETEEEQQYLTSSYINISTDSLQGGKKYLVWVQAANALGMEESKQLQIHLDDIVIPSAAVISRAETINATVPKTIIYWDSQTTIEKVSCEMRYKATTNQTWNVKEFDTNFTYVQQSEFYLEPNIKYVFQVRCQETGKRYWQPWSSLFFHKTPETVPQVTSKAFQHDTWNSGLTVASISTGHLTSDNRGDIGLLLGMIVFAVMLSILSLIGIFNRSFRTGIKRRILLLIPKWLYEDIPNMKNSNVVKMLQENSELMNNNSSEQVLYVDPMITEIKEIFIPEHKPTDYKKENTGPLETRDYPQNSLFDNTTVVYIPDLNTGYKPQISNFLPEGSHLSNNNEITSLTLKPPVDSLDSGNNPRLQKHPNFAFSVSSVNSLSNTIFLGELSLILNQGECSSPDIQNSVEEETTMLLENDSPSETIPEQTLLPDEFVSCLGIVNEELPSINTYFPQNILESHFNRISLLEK

T2: IL-23R (human, UniProt Q5VWK5 24-629)
T2 sequence (looked up): T1 sequence (Q5VWK5 24-629)

B1: SEQ ID NO: 276 (peptide)
peptide: XNTXQXXXXKNX
modifications: Ac-[Pen]-N-T-[W(7-Me)]-Q-[Pen]-Phe[4-(2-aminoethoxy)]-[2-Nal]-[DiethylGly]-[Lys(Ac)]-N-[bA]-NH2; Pen-Pen disulfide
B2: SEQ ID NO: 249 (peptide)
peptide: XNTXKXXXXKNX
modifications: Ac-[Pen]-NT-[W(7-Me)]-[Lys(Ac)]-[Pen]-Phe[4-(2-aminoethoxy)]-[2-Nal]-[a-MeLys]-[Lys(Ac)]-N-[Cit]-NH2; Pen-Pen disulfide
B3: SEQ ID NO: 274 (peptide)
peptide: XNTXQXXXXKNX
modifications: Ac-[Pen]-N-T-[W(7-Me)]-Q-[Pen]-Phe[4-(2-aminoethoxy)]-[2-Nal]-[Achc]-[Lys(Ac)]-N-[bA]-NH2; Pen-Pen disulfide
B4: SEQ ID NO: 265 (peptide)
peptide: Ac-[Pen]NT[Trp(7-Me)][Cit][Pen][AEF][2Nal][αMeK]K(Ac)N[NMeA]-NH2
modifications: disulfide 1-6; not fully specified; printed as Ac-[Pen]-NT-[W(7-Me)]-[Cit]-[Pen]-Phe[4-(2-aminoethoxy)]-[2-Nal]-[a-MeLys]-[Lys(Ac)]-[N-MeAla]-NH2

What was measured:
IL-23R [1] = target: T1, IL-23R; experiment: DB cells IL23R pSTAT3 cell assay (pStat3 HTRF); type: cell-based; details: Table E3; DB cells, IL-23 0.5 nM, 30 minutes at 37° C.; read-out: pStat3 HTRF (IC50)
How it was run: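 DB cells (5×10E5/well, RPMI-1640 + 10% FBS) stimulated with 0.5 nM final IL-23 plus serially diluted test peptides for 30 min at 37 °C, 5% CO2. Phospho-STAT3 (Tyr705) in lysates measured by HTRF using a two-plate protocol.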

in vitro [2] = type: in vitro ADME; design: half-life: dose or concentration left out as unconfirmed; details: simulated intestinal fluid (SIF) with pancreatin, pH 6.8, 37° C., § matrix is 100 fold dilution of standard SIF concentration, read-out: SIF t½ (converted)
in vitro [3] = details: human, 20% fecal homogenate (supernatant), anaerobic, pH 6.8
in vitro [4] = details: cynomolgus monkey, 20% fecal homogenate (supernatant), anaerobic, pH 6.8
in vitro [5] = details: both, SD, rat, plasma (EDTA)
IL-23R [6] = target: T2, IL-23R; experiment: cell-based or functional assay

pStat3 HTRF (nM) IC50 (IL-23R [6]) [nM] | Molecule | IC50 (IL-23R [1]) [nM] | half-life (in vitro [2]) [h] | half-life at 20 μM (in vitro [3]) [h] | half-life at 20 μM (in vitro [4]) [h] | half-life at 20 μM (in vitro [5]) [h]
 | CC(=O)NCCCC[C@H](NC(=O)[C@](C)(CCCCN)NC(=O)[C@H](Cc1ccc2ccccc2c1)NC(=O)[C@H](Cc1ccc(OCCN)cc1)NC(=O)[C@H]1NC(=O)[C@H](CCCNC(N)=O)NC(=O)[C@H](Cc2c[nH]c3c(C)cccc23)NC(=O)[C@H]([C@@H](C)O)NC(=O)[C@H](CC(N)=O)NC(=O)[C@@H](NC(C)=O)C(C)(C)SSC1(C)C)C(=O)NCCC(=O)NCCC(N)=O [compound 268] (Ac-[Pen]NT[Trp(7-Me)][Cit][Pen][AEF][2Nal][αMeK]K(Ac)[βAla][βAla]-NH2; disulfide 1-6) | 1 to 10 | 15 | > 24 | > 24 | > 24
 | CC(=O)NCCCC[C@H](NC(=O)C1(NC(=O)[C@H](Cc2ccc3ccccc3c2)NC(=O)[C@H](Cc2ccc(OCCN)cc2)NC(=O)[C@H]2NC(=O)[C@H](CCC(N)=O)NC(=O)[C@H](Cc3c[nH]c4c(C)cccc34)NC(=O)[C@H]([C@@H](C)O)NC(=O)[C@H](CC(N)=O)NC(=O)[C@@H](NC(C)=O)C(C)(C)SSC2(C)C)CCCCC1)C(=O)N[C@@H](CC(N)=O)C(=O)NCCC(N)=O [compound 274] | < 1 | 5 | > 24 | 4 | 5
 | CCC(CC)(NC(=O)[C@H](Cc1ccc2ccccc2c1)NC(=O)[C@H](Cc1ccc(OCCN)cc1)NC(=O)[C@H]1NC(=O)[C@H](CCC(N)=O)NC(=O)[C@H](Cc2c[nH]c3c(C)cccc23)NC(=O)[C@H]([C@@H](C)O)NC(=O)[C@H](CC(N)=O)NC(=O)[C@@H](NC(C)=O)C(C)(C)SSC1(C)C)C(=O)N[C@@H](CCCCNC(C)=O)C(=O)N[C@@H](CC(N)=O)C(=O)NCCC(N)=O [compound 276] | < 1 | 13 | > 24 | 13 | 5
 | CC(=O)N[C@@H]1C(=O)N[C@@H](CC(N)=O)C(=O)N[C@@H]([C@@H](C)O)C(=O)N[C@@H](Cc2c[nH]c3c(C)cccc23)C(=O)N[C@@H](CCC(N)=O)C(=O)N[C@H](C(=O)N[C@@H](Cc2ccc(OCCN)cc2)C(=O)N[C@@H](Cc2ccc3ccccc3c2)C(=O)N[C@@](C)(CCCCN)C(=O)N[C@@H](CCCNC(N)=O)C(=O)NCCC(=O)NCCC(N)=O)C(C)(C)SSC1(C)C [compound 279] | 1 to 10 | 7 | > 24 | > 24 | > 24
 | CC(=O)NCCCC[C@H](NC(=O)[C@](C)(CCCCN)NC(=O)[C@H](Cc1ccc2ccccc2c1)NC(=O)[C@H](Cc1ccc(OCCN)cc1)NC(=O)[C@H]1NC(=O)[C@H](CCCNC(N)=O)NC(=O)[C@H](Cc2cn(C)c3ccccc23)NC(=O)[C@H]([C@@H](C)O)NC(=O)[C@H](CC(N)=O)NC(=O)[C@@H](NC(C)=O)C(C)(C)SSC1(C)C)C(=O)NCCC(=O)NCCC(N)=O [compound 280] (Ac-[Pen]NT[Trp(1-Me)][Cit][Pen][AEF][2Nal][αMeK]K(Ac)[βAla][βAla]-NH2; disulfide 1-6) | 10 to 100 | 8 | > 24 | > 24 | > 24
 | CCc1cccc2c(C[C@@H]3NC(=O)[C@H]([C@@H](C)O)NC(=O)[C@H](CC(N)=O)NC(=O)[C@@H](NC(C)=O)C(C)(C)SSC(C)(C)[C@@H](C(=O)N[C@@H](Cc4ccc(OCCN)cc4)C(=O)N[C@@H](Cc4ccc5ccccc5c4)C(=O)N[C@@](C)(CCCCN)C(=O)N[C@@H](CCCCNC(C)=O)C(=O)N[C@@H](CC(N)=O)C(=O)N[C@H](CC(C)C)C(N)=O)NC(=O)[C@H](CCCCNC(C)=O)NC3=O)c[nH]c12 [compound 284] (Ac-[Pen]NT[X1]K(Ac)[Pen][AEF][2Nal][αMeK]K(Ac)N[dL]-NH2; disulfide 1-6) | < 1 | 2 | > 24 | > 24 | > 24
 | CCCc1cccc2c(C[C@@H]3NC(=O)[C@H]([C@@H](C)O)NC(=O)[C@H](CC(N)=O)NC(=O)[C@@H](NC(C)=O)C(C)(C)SSC(C)(C)[C@@H](C(=O)N[C@@H](Cc4ccc(OCCN)cc4)C(=O)N[C@@H](Cc4ccc5ccccc5c4)C(=O)N[C@@](C)(CCCCN)C(=O)N[C@@H](CCCCNC(C)=O)C(=O)N[C@@H](CC(N)=O)C(=O)N[C@H](CC(C)C)C(N)=O)NC(=O)[C@H](CCCCNC(C)=O)NC3=O)c[nH]c12 [compound 285] (Ac-[Pen]NT[X2]K(Ac)[Pen][AEF][2Nal][αMeK]K(Ac)N[dL]-NH2; disulfide 1-6) | < 1 | 9 | > 24 | > 24 | > 24
 | COc1cccc2c(C[C@@H]3NC(=O)[C@H]([C@@H](C)O)NC(=O)[C@H](CC(N)=O)NC(=O)[C@@H](NC(C)=O)C(C)(C)SSC(C)(C)[C@@H](C(=O)N[C@@H](Cc4ccc(OCCN)cc4)C(=O)N[C@@H](Cc4ccc5ccccc5c4)C(=O)N[C@@](C)(CCCCN)C(=O)N[C@@H](CCCCNC(C)=O)C(=O)N[C@@H](CC(N)=O)C(=O)N[C@H](CC(C)C)C(N)=O)NC(=O)[C@H](CCCCNC(C)=O)NC3=O)c[nH]c12 [compound 288] | 1 to 10 | 12 | > 24 | > 24 | > 24
 | CC(=O)NCCCC[C@@H]1NC(=O)[C@H](Cc2c[nH]c3c(C)cccc23)NC(=O)[C@H]([C@@H](C)O)NC(=O)[C@H](CC(N)=O)NC(=O)[C@@H](NC(C)=O)C(C)(C)SSC(C)(C)[C@@H](C(=O)N[C@@H](Cc2ccc3ccccc3c2)C(=O)N[C@@H](Cc2ccc3ccccc3c2)C(=O)N[C@@](C)(CCCCN)C(=O)N[C@@H](CCCCNC(C)=O)C(=O)N[C@@H](CC(N)=O)C(=O)N[C@H](CC(C)C)C(N)=O)NC1=O [compound 289] (Ac-[Pen]NT[Trp(7-Me)]K(Ac)[Pen][2Nal][2Nal][αMeK]K(Ac)N[dL]-NH2; disulfide 1-6) | 1 to 10 | 12 | > 24 | > 24 | > 24
 | CC(=O)NCCCC[C@@H]1NC(=O)[C@H](Cc2c[nH]c3c(C)cccc23)NC(=O)[C@H]([C@@H](C)O)NC(=O)[C@H](CC(N)=O)NC(=O)[C@@H](NC(C)=O)C(C)(C)SSC(C)(C)[C@@H](C(=O)N[C@@H](Cc2c[nH]cn2)C(=O)N[C@@H](Cc2ccc3ccccc3c2)C(=O)N[C@@](C)(CCCCN)C(=O)N[C@@H](CCCCNC(C)=O)C(=O)N[C@@H](CC(N)=O)C(=O)N[C@H](CC(C)C)C(N)=O)NC1=O [compound 290] (Ac-[Pen]NT[Trp(7-Me)]K(Ac)[Pen]H[2Nal][αMeK]K(Ac)N[dL]-NH2; disulfide 1-6) | 1 to 10 | 16 | > 24 | > 24 | > 24
< 1 | Ac-[Pen]NT[Trp(7-Me)][Cit][Pen][AEF][2Nal][αMeK]K(Ac)N[dR]-NH2 (disulfide 1-6 (inferred)) [SEQ ID NO: 256] |  |  |  |  | 
< 1 | B1 |  |  |  |  | 
< 1 | B2 |  |  |  |  | 
< 1 | B3 |  |  |  |  | 
> 100 | Ac-[Pen]NT[Trp(2,5,7-tritBu)]Q[Pen][AEF][2Nal][αMeK]K(Ac)N[βAla]-NH2 (disulfide 1-6) [SEQ ID NO: 233] |  |  |  |  | 
< 1 | Ac-[Pen]NT[Trp(7-Me)][Cit][Pen][AEF][2Nal][αMeK]K(Ac)N[dT]-NH2 (disulfide 1-6 (inferred)) [SEQ ID NO: 263] |  |  |  |  | 
< 1 | B4 |  |  |  |  | 
< 1 | Ac-[Pen]NT[Trp(7-Me)][Cit][Pen][AEF][2Nal][αMeK]K(Ac)NS-NH2 (disulfide 1-6 (inferred)) [SEQ ID NO: 260] |  |  |  |  | 
